Assay results reported in paper PMC10404663 (The Journal of Biological Chemistry, 2023).
One block for each molecule: values may come before it.

Columns and labels:
RocB = biological target: T1, RocB (Bacillus subtilis, UniProt P39635); test: coupled RocB-RocD assay, P5C-o-aminobenzaldehyde complex at […] nm; format: biochemical; details: 2 mM MnCl2, PBS, 25 °C, 1 µM RocD, 10 mM 2-oxoglutarate, 80 µM PLP
T1 sequence (P39635 1-566): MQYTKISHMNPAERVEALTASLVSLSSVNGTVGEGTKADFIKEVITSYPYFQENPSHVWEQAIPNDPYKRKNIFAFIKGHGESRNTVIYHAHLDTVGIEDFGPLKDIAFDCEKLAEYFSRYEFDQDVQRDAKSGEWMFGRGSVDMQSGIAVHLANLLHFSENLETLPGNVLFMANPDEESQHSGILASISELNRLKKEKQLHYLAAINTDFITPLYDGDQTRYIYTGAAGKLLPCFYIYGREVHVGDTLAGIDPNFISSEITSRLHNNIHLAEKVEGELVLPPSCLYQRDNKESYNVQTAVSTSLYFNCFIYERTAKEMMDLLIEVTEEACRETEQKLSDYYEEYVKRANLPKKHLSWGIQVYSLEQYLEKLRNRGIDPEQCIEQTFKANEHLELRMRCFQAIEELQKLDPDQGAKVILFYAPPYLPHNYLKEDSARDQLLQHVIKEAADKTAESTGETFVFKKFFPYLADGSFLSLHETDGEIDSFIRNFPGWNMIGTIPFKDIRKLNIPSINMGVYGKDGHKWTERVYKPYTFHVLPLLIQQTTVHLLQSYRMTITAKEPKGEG

[1] = biological target: truncated RocR (RocR^trunc, central domain) (Bacillus subtilis, UniProt P38022); details: 15 mM ATP, 15 mM MgCl2, pH 7.5, room temperature, no effector
dynamic light scattering = biological target: the molecule itself; test: dynamic light scattering

KM (RocB): 7.355 mM l^-1
Molecule: NC(=O)NCCC[C@H](N)C(=O)O [citrulline]

Molecule: Nc1ncnc2c1ncn2[C@@H]1O[C@H](COP(=O)(O)OP(=O)(O)OP(=O)(O)O)[C@@H](O)[C@H]1O [ATP]
kobs [1]: the truncated protein was active irrespective of the presence of potential effector molecules

B1: RocR, transcription activator of the roc genes (6xHis-RocR) (natural protein, Bacillus subtilis, UniProt P38022 1-461, looked up)
chain: MVKDSEFLTLVFQSILDEIDVGLHVVDEHGNTIVYNNKMMQIEDMEKHDVLNKNLMDVFMFSKQQDSTLVQALQEGKTIKNVKQSYFNNKGQEITTINHTYPIVQDGKIRGAVEIAKDVTKLERLIRENMNKKGSTTYTFDSILGTSPAIQDVIENAKRATRTSSSVLLAGETGTGKELFAQSIHNGSDRSGGPFISQNCAALPDSLVESILFGTKKGAFTGAVDQPGLFEQAHGGTLLLDEINSLNLSLQAKLLRALQERKIRRIGSTKDTPIDVRIIATMNEDPIDAIAGERMRKDLYYRLSVVTLIIPPLRERKEDILLLASEFIQKNNHLFQMNVEHISDDVKQFFLSYDWPGNIRELEHMIEGAMNFMTDEQTITASHLPYQYRMKIKPADIPEPETPRHQPAADLKEKMESFEKYVIENVLRKHGHNISKAAQELGISRQSLQYRLKKFSHSSNE
stoichiometry N (dynamic light scattering): ~2
